Columns and labels:
[1] = molecular target: Human immunodeficiency virus type 1 protease (Human immunodeficiency virus 1) (UniProt Q72874); test: Percent inhibition against human immunodeficiency virus 1 protease; parameters: concentration or dose not given beside the values; conditions: concentration not given here
[2] = molecular target: Human immunodeficiency virus type 1 protease (Human immunodeficiency virus 1) (UniProt Q72874); test: Ratio of Michaelis-Menten constant and catalytic constant against human immunodeficiency virus type I protease
[3] = molecular target: Human immunodeficiency virus type 1 protease (Human immunodeficiency virus 1) (UniProt Q72874); test: Catalytic constant against human immunodeficiency virus typeI protease
[4] = molecular target: Human immunodeficiency virus type 1 protease (Human immunodeficiency virus 1, UniProt Q72874); test: Inhibition constant against human immunodeficiency virus 1 protease
[5] = molecular target: Human immunodeficiency virus type 1 protease (Human immunodeficiency virus 1) (UniProt Q72874); test: Inhibitory activity against human immunodeficiency virus type I protease
[6] = molecular target: Human immunodeficiency virus type 1 protease (Human immunodeficiency virus 1) (UniProt Q72874); test: Inhibitory activity against human immunodeficiency virus typeI protease

| inhibition [1] [%] | SMILES | also measured |
| --- | --- | --- |
| 66 | O=C(NCC1CCCCC1)C(Cc1ccccc1)N1CC(O)C1=O (configuration not stated) |  |
| 68 | COC(=O)C(Cc1ccccc1)NC(=O)C1CC(=O)N1C(Cc1ccccc1)C(=O)NCC(C)C (configuration not stated) |  |
| 78 | CCCCNC(=O)C(Cc1ccccc1)N1CC(C)C1=O (configuration not stated) |  |
| 76 | CC1CN(C(Cc2ccccc2)C(=O)NCC2CCCCC2)C1=O (configuration not stated) |  |
| 65 | CC(C)CNC(=O)C(Cc1ccccc1)N1CCC1=O (configuration not stated) |  |
| 71 | CC1CN(C(Cc2ccccc2)C(=O)NCC2N=Cc3cncnc32)C1=O (configuration not stated) |  |
| 71 | COC(=O)C(Cc1ccccc1)NC(=O)C1CC(=O)N1C(C(=O)NCC(C)C)c1ccccc1 (configuration not stated) |  |
| 72 | CC(C)CNC(=O)C(Cc1ccccc1)N1CC(C)C1=O (configuration not stated) |  |
| 71 | CC1CC(=O)N1C(Cc1ccccc1)C(=O)NCC1CCCCC1 (configuration not stated) |  |
| 74 | CCCCNC(=O)C(Cc1ccccc1)N1C(=O)CC1c1ccccc1 (configuration not stated) |  |
| 70 | COC(=O)CNC(=O)[C@H](c1ccccc1)N1CCC1=O |  |
| 65 | O=C(NCc1ccccc1)C(Cc1ccccc1)N1CCC1=O (configuration not stated) |  |
| 79 | O=C(NCC1CCCCC1)C(c1ccccc1)N1CCC1=O (configuration not stated) |  |

The remaining lines, values behind:

| SMILES | inhibition [1] [%] | also measured |
| --- | --- | --- |
| O=C(OCc1ccccc1)C1CC(=O)N1C(C(=O)NCc1ccccc1)c1ccccc1 (configuration not stated) | 119 |  |
| O=C(OCc1ccccc1)C1CC(=O)N1C(C(=O)NCC1N=Cc2cncnc21)c1ccccc1 (configuration not stated) | 97 | Ratio [2]: 0.151 mM⁻¹ s⁻¹; K cat [3]: 0.126 s⁻¹; Ki [4]: 60.3 µM; inhibition [5]: 60 µM |
| CCCC(C(=O)NCC1CCCCC1)N1C(=O)CC1C(=O)NC(Cc1ccccc1)C(=O)OC (configuration not stated) | 71 |  |
| COC(=O)CNC(=O)[C@H](Cc1ccccc1)N1C(=O)C[C@H]1C(=O)N[C@@H](Cc1ccccc1)C(=O)OC | 69 |  |
| CCCC(C(=O)NCC(=O)OC)N1C(=O)C(C)C1C(=O)OCc1ccccc1 (configuration not stated) | 87 |  |
| CCCCNC(=O)C(CCC)N1C(=O)CC1c1ccccc1 (configuration not stated) | 93 |  |
| COC(=O)CNC(=O)C(Cc1ccccc1)N1C(=O)CC1C(=O)OCc1ccccc1 (configuration not stated) | 67 |  |
| CCCCNC(=O)C(c1ccccc1)N1C(=O)CC1C(=O)OCc1ccccc1 (configuration not stated) | 71 |  |
| CCC[C@@H](C(=O)NCC(=O)OC)N1C(=O)CC1C(=O)N[C@@H](Cc1ccccc1)C(=O)OC (some centres not stated) | 103 |  |
| O=C(NCC1N=Cc2cncnc21)C(Cc1ccccc1)N1C(=O)CC1C(=O)OCc1ccccc1 (configuration not stated) | 66 |  |
| CC1CC(=O)N1C(C(=O)NCC1CCCCC1)c1ccccc1 (configuration not stated) | 83 |  |
| CC1CN(C(C(=O)NCc2ccccc2)c2ccccc2)C1=O (configuration not stated) | 86 |  |
| CCC[C@@H](C(=O)NCC(=O)OC)N1C(=O)C[C@H]1c1ccccc1 | 68 |  |
| CCCC(C(=O)NCC1N=Cc2cncnc21)N1CCC1=O (configuration not stated) | 74 |  |
| CC1CC(=O)N1C(Cc1ccccc1)C(=O)NCC1C=Nc2cncnc21 (configuration not stated) | 62 |  |
| O=C(NCc1ccccc1)C(c1ccccc1)N1C(=O)CC1c1ccccc1 (configuration not stated) | 75 |  |
| COC(=O)CNC(=O)[C@H](c1ccccc1)N1C[C@H](C)C1=O | 63 |  |
| CCCC(C(=O)NCC1N=Cc2cncnc21)N1C(=O)CC1C(=O)OCc1ccccc1 (configuration not stated) | 83 |  |
| CC1CN(C(C(=O)NCC2N=Cc3cncnc32)c2ccccc2)C1=O (configuration not stated) | 76 |  |
| CC1C(=O)N(C(C(=O)NCC2CCCCC2)c2ccccc2)C1C(=O)OCc1ccccc1 (configuration not stated) | 92 |  |
| O=C(NCC1N=Cc2cncnc21)C(c1ccccc1)N1C(=O)CC1c1ccccc1 (configuration not stated) | 78 |  |
| O=C(NCC1N=Cc2cncnc21)C(c1ccccc1)N1CCC1=O (configuration not stated) | 68 |  |
| COC(=O)CNC(=O)C(c1ccccc1)N1C(=O)CC1C(=O)OCc1ccccc1 (configuration not stated) | 97 | Ratio [2]: 0.157 mM⁻¹ s⁻¹; K cat [3]: 0.144 s⁻¹; inhibition [6]: 1000 µM; Ki [4]: 1140 µM |
| CCCCNC(=O)C(c1ccccc1)N1C(=O)CC1c1ccccc1 (configuration not stated) | 63 |  |
| CCCCNC(=O)C(c1ccccc1)N1C(=O)CC1C(=O)NC(Cc1ccccc1)C(=O)OC (configuration not stated) | 86 |  |
| CC1CC(=O)N1C(C(=O)NCc1ccccc1)c1ccccc1 (configuration not stated) | 67 |  |
| COC(=O)C(Cc1ccccc1)NC(=O)C1C(O)C(=O)N1C(C(=O)NCC1N=Cc2cncnc21)c1ccccc1 (configuration not stated) | 97 | Ratio [2]: 0.155 mM⁻¹ s⁻¹; K cat [3]: 0.1 s⁻¹; Ki [4]: 63.2 µM; inhibition [5]: 80 µM |
